Measurements taken from publication PMC4161152 (Journal of Medicinal Chemistry, 2014).

Columns and labels:
Assay type in all cases: cell-based
[1] = tested on: human Raji lymphoma cells; assay: Raji lymphoma cell MTT assay
MCT1 = target: T1, MCT1 (Mus musculus, UniProt P53986); assay: MCF7_MCT1 14C-lactate transport assay; details: IC50 (nM) lactate transport, labeled (14C) lactate transport, MCF7 breast cancer cells engineered to overexpress MCT1, 10 min on ice
T1 sequence (P53986 1-493): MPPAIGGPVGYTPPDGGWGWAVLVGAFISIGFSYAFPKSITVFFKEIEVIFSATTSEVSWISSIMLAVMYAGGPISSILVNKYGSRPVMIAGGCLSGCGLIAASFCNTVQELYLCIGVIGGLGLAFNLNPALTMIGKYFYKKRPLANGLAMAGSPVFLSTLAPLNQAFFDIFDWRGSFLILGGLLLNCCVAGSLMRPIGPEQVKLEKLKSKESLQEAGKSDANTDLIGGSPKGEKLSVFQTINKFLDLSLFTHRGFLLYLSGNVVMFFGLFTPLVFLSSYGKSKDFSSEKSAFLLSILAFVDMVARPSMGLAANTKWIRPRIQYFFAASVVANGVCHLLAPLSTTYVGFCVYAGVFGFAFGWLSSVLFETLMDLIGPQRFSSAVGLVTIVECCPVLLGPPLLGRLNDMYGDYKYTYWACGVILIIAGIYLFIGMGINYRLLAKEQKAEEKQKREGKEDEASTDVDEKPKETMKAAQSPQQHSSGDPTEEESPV

MCF7_MCT4 cells = assay: MCF7_MCT4 MTT assay; details: Homo sapiens, 96 h, read-out: growth inhibition EC50, MCF7_MCT4 cells
human MCT4 = target: T2, human MCT4 (Homo sapiens, UniProt O15427); assay: 14C lactate uptake in MCF7_MCT4 cells; details: increased uptake versus parental MCF7 cells
T2 sequence (O15427 1-465): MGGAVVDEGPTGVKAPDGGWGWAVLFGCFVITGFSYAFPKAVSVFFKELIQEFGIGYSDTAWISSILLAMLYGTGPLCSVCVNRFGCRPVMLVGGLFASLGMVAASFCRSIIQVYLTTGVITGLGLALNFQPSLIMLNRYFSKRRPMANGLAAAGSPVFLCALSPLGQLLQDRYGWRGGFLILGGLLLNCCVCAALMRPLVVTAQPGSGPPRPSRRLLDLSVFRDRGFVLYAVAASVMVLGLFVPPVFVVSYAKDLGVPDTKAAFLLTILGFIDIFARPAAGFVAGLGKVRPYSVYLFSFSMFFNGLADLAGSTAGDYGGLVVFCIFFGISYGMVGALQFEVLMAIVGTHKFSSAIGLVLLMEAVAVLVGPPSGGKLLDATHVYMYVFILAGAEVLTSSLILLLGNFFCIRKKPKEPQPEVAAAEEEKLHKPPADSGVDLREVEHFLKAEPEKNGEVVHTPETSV

Row | IC50 (MCT1) | Compound | activity in Raji lymphoma cell proliferation assay (in words) [1] | also measured
1 | – | Cc1n[nH]c(C)c1Cc1nc2c(nc1CCCCCO)c(=O)n(C)c(=O)n2CC(C)C [Compound 31] | inactive | –
2 | 116 nM | CC(C)Cn1c(=O)n(C)c(=O)c2nc(/C=C\CCCO)c(Cc3cccc4ccccc34)nc21 [Compound 27] | – | fold higher EC50 than clinical compound 2 [1]: 2–4 fold
3 | 548 nM | CC(C)Cn1c(=O)n(C)c(=O)c2c1nc(Cc1cccc3ccccc13)c(=O)n2CCCCO [Compound 14b] | – | –
4 | – | CC(C)Cn1c(=O)n(C)c(=O)c2c1nc(Cc1cccc3ccccc13)c(=O)n2CCCCCCO [Compound 14d] | inactive | –
5 | – | COCCCCCc1nc2c(=O)n(C)c(=O)n(CC(C)C)c2nc1Cc1cccc2ccccc12 [Compound 28] | largely inactive | –
6 | – | CC(C)Cc1nn(C)c(=O)c2c(SCCCO)n(Cc3cccc4ccccc34)cc12 [Compound 1, reference compound] | – | EC50 (MCF7_MCT4 cells): > 10 µM; effect on 14C lactate uptake in MCF7_MCT4 cells (in words) (human MCT4): not inhibited
7 | – | CC(C)Cn1c(=O)n(C)c(=O)c2nc(SCCCCO)c(Cc3cccc4ccccc34)nc21 [Compound 15c] | – | fold higher EC50 than clinical compound 2 [1]: 2–4 fold
8 | – | CC(C)Cn1c(=O)n(C)c(=O)c2[nH]c(=O)c(Cc3cccc4ccccc34)nc21 [Compound 12] | inactive | –
9 | > 2000 nM | CC(C)Cn1c(=O)n(C)c(=O)c2nc(CCCCO)c(Cc3cccc4ccccc34)nc21 [Compound 23a] | – | –
10 | 858 nM | CC(C)Cn1c(=O)n(C)c(=O)c2nc(SCCCO)c(Cc3cccc4ccccc34)nc21 [Compound 15b] | – | –
11 | 192 nM | CC(C)Cn1c(=O)n(C)c(=O)c2nc(CCCCCO)c(Cc3cccc4ccccc34)nc21 [Compound 23b] | – | fold higher EC50 than clinical compound 2 [1]: 2–4 fold
